The assay addresses T1, GCase (Homo sapiens, UniProt P04062).
T1 construct: endogenous in cells; host or cells: HeLa cells
T1 sequence (P04062 40-536): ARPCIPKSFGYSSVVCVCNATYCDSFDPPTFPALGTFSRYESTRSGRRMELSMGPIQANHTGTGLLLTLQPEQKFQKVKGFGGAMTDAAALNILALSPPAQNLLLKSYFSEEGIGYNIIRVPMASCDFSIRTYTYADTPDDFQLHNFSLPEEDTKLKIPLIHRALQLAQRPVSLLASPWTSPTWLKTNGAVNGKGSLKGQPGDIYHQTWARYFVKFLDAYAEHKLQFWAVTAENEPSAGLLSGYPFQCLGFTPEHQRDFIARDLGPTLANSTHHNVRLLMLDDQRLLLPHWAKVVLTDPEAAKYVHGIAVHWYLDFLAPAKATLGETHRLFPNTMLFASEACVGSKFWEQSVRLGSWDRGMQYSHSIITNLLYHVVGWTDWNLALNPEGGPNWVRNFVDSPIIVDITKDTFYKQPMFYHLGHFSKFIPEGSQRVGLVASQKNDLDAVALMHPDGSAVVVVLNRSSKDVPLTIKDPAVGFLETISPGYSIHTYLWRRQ
As to the kind of experiment: activation of GCase in a live cell PFB assay in HELA cells. In kind it is cell-based.

pEC50: −log10 of the molar value.

One may read the pEC50 as the EC50 on a negative log10 scale, so that one unit is a factor of ten. Turning to `O=C(N1CCC(COc2cccc(C(F)(F)F)n2)C1)C1(c2ccccc2)CCOCC1` (stereo not drawn) [Compound 6], the negative logarithm of the EC50 (pEC50) is > 5.00.

`FC(F)Cn1ncc2ncc(N3CC4CC4(COc4cccnc4C(F)(F)F)C3)nc21` (stereo not drawn) [Compound 260, 3-[1-(2,2-Difluoroethyl)-1H-pyrazolo[3,4-b]pyrazin-6-yl]-1-({[2-(trifluoromethyl)pyridin-3-yl]oxy}methyl)-3-azabicyclo[3.1.0]hexane] had a negative logarithm of the EC50 (pEC50) of 4.30 to 5.00.

As for `C[C@H]1C[C@@H](COc2cccnc2C(F)(F)F)CN(c2cnc3cnn(CC4COC4)c3n2)C1` (single isomer, unassigned) [Compound 233b], the pEC50 is > 5.00.

In turn, `O=C(N1CCCC(COc2ccccc2)C1)C12CC3CC(CC(C3)C1)C2` (stereo not drawn) [Compound 204] gave a pEC50 of 4.30 to 5.00. For `Cn1c(-c2ccc(F)cn2)nc2ncc(N3C[C@@H]4[C@@H](COc5cc(F)cc(F)c5)[C@@H]4C3)nc21` [Compound 286, 6-((1R,5S,6r)-6-((3,5-Difluorophenoxy)methyl)-3-azabicyclo[3.1.0]hexan-3-yl)-2-(5-fluoropyridin-2-yl)-1-methyl-1H-imidazo[4,5-b]pyrazine] the value was < 4.00; for `COC(C(=O)N1CCCC(COc2ccccc2)C1)c1ccc(Cl)cc1` (stereo not drawn) [Compound 153], 4.30 to 5.00; for `O=C(c1ccc2c(c1)CCCC2)N1CCC(Oc2ccccc2)CC1` [Compound 407, 4-Phenoxy-1-(5,6,7,8-tetrahydronaphthalene-2-carbonyl)piperidine], 4.30 to 5.00. For `O=C(c1cnn(-c2ccc(Cl)cc2)n1)N1CCCC(COc2ccccc2)C1` (stereo not drawn) [Compound 147] the value was 4.30 to 5.00. For `O=C(c1ccc(Cn2cccn2)o1)N1CCC(OCc2ccccc2)CC1` [Compound 449] the value was < 4.00; for `O=C(c1ncc(Cl)s1)N1CCCC(COc2ccccc2)C1` (stereo not drawn) [Compound 137], < 4.00; for `COc1ccc(OCC2CCN(C(=O)c3cccc(C#CC(C)(C)O)c3)CC2)cc1` [Compound 420], 4.30 to 5.00. As to `C[C@@H]1C[C@H](COc2cccnc2C(F)(F)F)CN(c2cnc3cnn(CC45CC(C4)C5)c3n2)C1` [Compound 281, 1-(Bicyclo[1.1.1]pentan-1-ylmethyl)-6-((3R,5S)-3-methyl-5-(((2-(trifluoromethyl)pyridin-3-yl)oxy)methyl)piperidin-1-yl)-1H-pyrazolo[3,4-b]pyrazine], the pEC50 was > 5.00. For `CCn1c(=O)n(CC)c2nc(N3C[C@@H](C)C[C@@H](COc4cccnc4C(F)(F)F)C3)cnc21` [Compound 288a, 1,3-Diethyl-5-((3S,5R)-3-methyl-5-(((2-(trifluoromethyl)pyridin-3-yl)oxy)methyl)piperidin-1-yl)-1,3-dihydro-2H-imidazo[4,5-b]pyrazin-2-one] the value was > 5.00. For `Cc1ccccc1OCC1CCCN(C(=O)c2c(-c3ccccc3)n(C)c3nccnc23)C1` (stereo not drawn) [Compound 81, (5-Methyl-6-phenyl-5H-pyrrolo[2,3-b]pyrazin-7-yl)(3-((o-tolyloxy)methyl)piperidin-1-yl)methanone] the value was 4.30 to 5.00; for `COc1ccc(OCC2CCN(Cc3noc(C4CCCO4)n3)CC2)cc1` (stereo not drawn) [Compound 471], 4.00 to 4.30. For `COCCNc1nc2cc(C(=O)N3CCC(O)(CO)CC3)ccc2n1C` [Compound 486], the pEC50 was 4.30 to 5.00.

In the case of `FC(F)Cn1ncc2ncc(N3CCC(COc4ccc(C(F)(F)F)cn4)CC3)nc21` [Compound 317, 1-(2,2-Difluoroethyl)-6-(4-(((5-(trifluoromethyl)pyridin-2-yl)oxy)methyl)piperidin-1-yl)-1H-pyrazolo[3,4-b]pyrazine], the negative logarithm of the EC50 (pEC50) is 4.30 to 5.00. For `COC1CC(COc2cccnc2C(F)(F)F)CN(c2cnc3cnn(CC(F)F)c3n2)C1` (stereo not drawn) [Compound 291, 1-(2,2-Difluoroethyl)-6-(3-methoxy-5-(((2-(trifluoromethyl)pyridin-3-yl)oxy)methyl)piperidin-1-yl)-1H-pyrazolo[3,4-b]pyrazine] the value was > 5.00; for `C[C@@H]1CC[C@H](COc2cncc(C(F)(F)F)c2)CN1c1cnc2cnn(CC(F)F)c2n1` [Compound 273, 1-(2,2-Difluoroethyl)-6-((2R,5S)-2-methyl-5-(((5-(trifluoromethyl)pyridin-3-yl)oxy)methyl)piperidin-1-yl)-1H-pyrazolo[3,4-b]pyrazine], 4.30 to 5.00; for `Cn1c(-c2ccc(F)cc2)nc2nc(C(=O)N3C[C@@H]4[C@@H](COc5cccnc5C(F)(F)F)[C@@H]4C3)cnc21` [Compound 223], < 4.00.

In turn, `Fc1cc(F)cc(OCC2CCCN(c3cnc4cnn(C5COC5)c4n3)C2)c1` (stereo not drawn) [Compound 88, 6-(3-((3,5-Difluorophenoxy)methyl)piperidin-1-yl)-1-(oxetan-3-yl)-1H-pyrazolo[3,4-b]pyrazine] gave a pEC50 of 4.30 to 5.00. For `CCc1cc(N2CCC(COc3ccc(OC)cc3)CC2)ncn1` [Compound 464] the value was 4.30 to 5.00; for `C[C@@H]1CC[C@H](COc2cccnc2C(F)(F)F)CN1c1cnc2cnn(CC(F)F)c2n1` [Compound 80, 1-(2,2-Difluoroethyl)-6-((2R,5S)-2-methyl-5-(((2-(trifluoromethyl)pyridin-3-yl)oxy)methyl)piperidin-1-yl)-1H-pyrazolo[3,4-b]pyrazine], > 5.00. For `O=C(c1cnc(-c2nncs2)cn1)N1C[C@@H]2[C@@H](COc3cccc(C(F)(F)F)n3)[C@@H]2C1` [Compound 247, (1R,5S,6S)-3-[5-(1,3,4-Thiadiazol-2-yl)pyrazine-2-carbonyl]-6-({[6-(trifluoromethyl)pyridin-2-yl]oxy}methyl)-3-azabicyclo[3.1.0]hexane] the value was < 4.00; for `O=C([C@@H]1C[C@H]1c1ccc(F)cc1)N1CCCC(COc2ccccc2)C1` (stereo partly drawn) [Compound 219], 4.30 to 5.00; for `O=C(c1ccc2cc[nH]c2c1)N1CCC(Oc2cncc(C(F)(F)F)c2)CC1` [Compound 307, (1H-Indol-6-yl)(4-((5-(trifluoromethyl)pyridin-3-yl)oxy)piperidin-1-yl)methanone], 4.30 to 5.00. For `O=C(c1nnc(C2(c3ccccc3)CCOC2)o1)N1CCCC(COc2ccccc2)C1` (stereo not drawn) [Compound 76, 3-(phenoxymethyl)-1-[5-(3-phenyloxolan-3-yl)-1,3,4-oxadiazole-2-carbonyl]piperidine] the value was 4.30 to 5.00; for `Fc1cnc(OC[C@@H]2[C@H]3CN(c4cnc5cnn(C6COC6)c5n4)C[C@@H]23)c(F)c1` [Compound 120, 6-((1R,5S,6r)-6-(((3,5-difluoropyridin-2-yl)oxy)methyl)-3-azabicyclo[3.1.0]hexan-3-yl)-1-(oxetan-3-yl)-1H-pyrazolo[3,4-b]pyrazine], 4.00 to 4.30. With `C[C@@H]1CC[C@@H](COc2cccnc2C(F)(F)F)CN1c1cnc2cnn(CC(F)F)c2n1` [Compound 79, 1-(2,2-Difluoroethyl)-6-((2R,5R)-2-methyl-5-(((2-(trifluoromethyl)pyridin-3-yl)oxy)methyl)piperidin-1-yl)-1H-pyrazolo[3,4-b]pyrazine], the pEC50 is > 5.00. For `Cn1c(-c2ccccc2)nc2nc(C(=O)N3C[C@@H]4[C@@H](COc5cccnc5C(F)(F)F)[C@@H]4C3)cnc21` [Compound 105, (1-methyl-2-phenyl-1H-imidazo[4,5-b]pyrazin-5-yl)((1R,5S,6r)-6-(((2-(trifluoromethyl)pyridin-3-yl)oxy)methyl)-3-azabicyclo[3.1.0]hexan-3-yl)methanone] the value was < 4.00.

The record behind these values is US20240262832A1, “SMALL MOLECULE MODULATORS OF GLUCOCEREBROSIDASE ACTIVITY AND USES THEREOF” (Vanqua Bio, Inc., priority 2021, published 2024).
